Positions of bridges follow the written chain, without caps; N, C: chain ends. Non-standard residues stand in square brackets, D forms with d. Residues, ends and D or L forms follow the SMILES beside them. *: point of attachment. Benzoyl(4-F) = O=C(c1ccc(F)cc1)*; Mpa = O=C(O)CCS
Tests used:
in vitro = settings: rat, serum
Protocol: One hundred and fifty microliters of rat or human serum (Sigma Aldrich) was preheated at 37 °C for 30 min. 25 μL of the tested peptide sample (0.3 M in 0.1 M potassium phosphate buffer at pH 7.2) or 0.1 M potassium phosphate buffer pH 7.2 (for blank sample) were added to the serum and incubated at 37 °C. […] Sampled were centrifugated at 20,000 × g for 10 min, and the supernatant analysed via LC-MS (column: Agilent Technology, Zorbex C18, 2.1 × 100 mm, 5 μm, 300 Å. Elution method: 0–50% B in 50 min, 0.25 mL/min. Solvent A: 0.1% TFA in H2O. Solvent B: 0.1% TFA in ACN). Each peptide sample was analysed in three independent experiments, and data analysis was performed using Prism Version 7, a nonlinear fit one-phase decay model.

physchem = settings: buffer
Protocol: (§3) Tested peptides were dissolved (1 mM) in 100 mM sodium citrate buffer (pH 3), 100 mM potassium phosphate buffer (pH 7), or 100 mM sodium carbonate buffer (pH 9).

human OTR = biological target: T1, human OTR (Homo sapiens, UniProt P30559); assay: FLIPR calcium mobilisation assay, hOTR; type: cell-based; settings: for EC50: COS-1 cells transfected with hOTR, n = 3, mean ± SEM
T1 construct: expressed in transfected cells; host or cells: COS-1
T1 sequence (P30559 1-389): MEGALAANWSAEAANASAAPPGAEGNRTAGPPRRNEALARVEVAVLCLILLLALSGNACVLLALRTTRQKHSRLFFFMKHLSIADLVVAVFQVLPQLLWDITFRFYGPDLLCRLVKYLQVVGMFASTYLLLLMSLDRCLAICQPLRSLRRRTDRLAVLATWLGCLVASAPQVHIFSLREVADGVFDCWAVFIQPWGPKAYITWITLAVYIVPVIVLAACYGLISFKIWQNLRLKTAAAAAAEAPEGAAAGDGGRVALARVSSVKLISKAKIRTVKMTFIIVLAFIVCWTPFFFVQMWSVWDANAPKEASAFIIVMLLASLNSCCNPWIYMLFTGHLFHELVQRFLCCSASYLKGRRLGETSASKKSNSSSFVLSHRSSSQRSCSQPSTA
Protocol: (§1) OTR belongs to the rhodopsin-type (class I) G protein-coupled receptor (GPCR) family and is closely related to the vasopressin (VP) receptor (VPR) family (V1aR, V1bR, V2R). […] OTR, V1aR, and V1bR are expressed in the periphery and in CNS, while V2R is primarily expressed in the kidneys and was deemed not in scope for our exploration. The EC50 of our ligands was measured using a Fluorescent Imaging Plate Reader (FLIPR) calcium mobilisation assay (Fig. 2C)[34].
(§2) COS-1 cells were cultured in Dulbecco’s modified Eagle’s medium (DMEM) and 5% foetal bovine serum (FBS). […] Fluo-4-AM [4-(6-acetoxymethoxy-2,7-difluoro-3-oxo-9-xanthenyl)-4′-methyl-2,2′-(ethylenedioxy)dianilineN,N,N′,N′-tetraacetic acid tetrakis(acetoxymethyl) ester] ([…]) in PSS containing 0.3% fatty acid-free BSA was then added, and the cells incubated for 30 min at 37 °C. […] The baseline fluorescence was set to a minimum of 1000 arbitrary fluorescence units. The baseline fluorescence was read 10 times, followed by the addition of test compounds and fluorescence measurement every second for 180 s. The test compounds were added as an 8-point gradient in triplicate, with the highest concentration of 10 μM in PSS. To convert the raw fluorescence data to DF/F, the baseline fluorescence readings were subtracted from subsequent time points, and the resulting value was divided by the baseline fluorescence values.

human V1aR = biological target: T2, human V1aR (Homo sapiens, UniProt P37288); assay: FLIPR calcium mobilisation assay, hV1aR; type: cell-based; settings: COS-1 cells transfected with hV1aR; n = 3, mean ± SEM
T2 construct: expressed in transfected cells; host or cells: COS-1
T2 sequence (P37288 whole entry): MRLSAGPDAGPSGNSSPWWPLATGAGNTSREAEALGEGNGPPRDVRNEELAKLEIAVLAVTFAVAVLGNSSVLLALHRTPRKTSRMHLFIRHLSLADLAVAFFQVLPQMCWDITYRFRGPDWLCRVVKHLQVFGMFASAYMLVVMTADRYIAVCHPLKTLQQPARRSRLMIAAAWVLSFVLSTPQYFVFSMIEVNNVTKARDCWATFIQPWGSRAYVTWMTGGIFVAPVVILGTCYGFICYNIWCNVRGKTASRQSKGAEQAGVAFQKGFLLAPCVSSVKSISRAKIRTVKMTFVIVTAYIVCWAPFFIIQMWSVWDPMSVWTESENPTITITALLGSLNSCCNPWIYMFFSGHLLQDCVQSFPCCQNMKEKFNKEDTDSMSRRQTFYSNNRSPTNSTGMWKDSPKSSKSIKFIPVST
Protocol: as §1
as §2, with “°C. The cells were then transferred to a” for “°C.”

human V1bR = biological target: T3, human V1bR (Homo sapiens, UniProt P47901); assay: FLIPR calcium mobilisation assay, hV1bR; type: cell-based; settings: COS-1 cells transfected with hV1bR; n = 3, mean ± SEM
T3 construct: expressed in transfected cells; host or cells: COS-1
T3 sequence (P47901 1-424): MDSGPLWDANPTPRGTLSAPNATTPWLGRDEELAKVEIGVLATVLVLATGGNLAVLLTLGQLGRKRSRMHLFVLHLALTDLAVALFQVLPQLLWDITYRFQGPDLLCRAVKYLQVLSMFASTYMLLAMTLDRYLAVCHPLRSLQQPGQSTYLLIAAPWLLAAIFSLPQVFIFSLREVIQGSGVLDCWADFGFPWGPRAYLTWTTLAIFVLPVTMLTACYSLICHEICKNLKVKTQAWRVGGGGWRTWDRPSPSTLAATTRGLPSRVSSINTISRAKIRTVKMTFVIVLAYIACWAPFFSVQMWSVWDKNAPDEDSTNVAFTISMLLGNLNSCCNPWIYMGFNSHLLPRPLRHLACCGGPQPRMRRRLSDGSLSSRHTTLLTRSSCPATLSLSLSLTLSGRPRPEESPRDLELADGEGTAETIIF
Protocol: as §1, §2

[1] = pH 7
Protocol: as §3

[2] = Hydrophobicity assessment by analytical C18-RP-HPLC; type: physicochemical; settings: 0–40% B
Protocol: To identify the most OT-like radiotracer, we first assessed the hydrophobicity of all compounds by comparing their retention times with OT on an analytical C18-RP-HPLC column (Fig. 2A).
Fig. 2 Pharmacological characterisation of OT analogues. […] B Metabolic stability of OT analogues in rat and human serum. Each time point was analysed in three independent experiments (n = 3 technical triplicates, mean ± SEM). C Potencies (EC50) values for OT and analogues at the human OTR, V1aR, and V1bR, determined by a FLIPR calcium mobilisation assay (n = 3 technical triplicates, mean ± SEM). […]; similar hydrophobicity with HPLC Rt ± 20% from OT; buffer t1/2 > 30 min at pH 7; […]; EC50 at OTR < 50 nM; EC50 at V1aR and V1bR < 5×EC50(OTR) (n.a.: not assessed).

[3] = Stability test at different pH (buffered solutions); settings: buffer
Protocol: as §3

[4] = pH 3, t1/2 pH 3.0, 100 mM sodium citrate buffer pH 3, 10 h
[5] = pH 7, t1/2 pH 7.0, 100 mM potassium phosphate buffer pH 7, 10 h
[6] = pH 9, t1/2 pH 9.0, 100 mM sodium carbonate buffer pH 9, 10 h

| Compound | half-life at 0.043 M (in vitro) | half-life at 1 mM (physchem; pH 3) | half-life at 1 mM (physchem; pH 7) | half-life at 1 mM (physchem; pH 9) | EC50 (human OTR) | fold more potent than OT at OTR (human OTR; EC50 compared with OT) | EC50 (human V1aR) | EC50 (human V1bR) | degradation within 10 h [1] | fold less potent than OT at OTR (human OTR; EC50 compared with OT) | hydrophobicity compared with OT (retention on C18-RP-HPLC) [2] | half-life at 1 mM [3, 4] | half-life at 1 mM [3, 5] | half-life at 1 mM [3, 6] | half-life at 1 mM ([3]; pH 7, t1/2 at pH 7, pH 7, as stated in main text) | half-life at 1 mM ([3]; pH 9, t1/2 at pH 9, pH 9, as stated in main text) |
| --- | --- | --- | --- | --- | --- | --- | --- | --- | --- | --- | --- | --- | --- | --- | --- | --- |
| CC[C@H](C)[C@@H]1NC(=O)[C@H](Cc2ccc(O)cc2)NC(=O)[C@@H](N)CSSC[C@@H](C(=O)N2CCC[C@H]2C(=O)N[C@@H](CC(C)C)C(=O)NCC(N)=O)NC(=O)[C@H](CC(N)=O)NC(=O)[C@H](CCC(N)=O)NC1=O [OT, oxytocin, reference compound] | 47 ± 0.05 h | > 10 h | > 10 h | > 10 h |  |  |  |  |  |  |  |  |  |  |  |  |
| CC[C@H](C)[C@@H]1NC(=O)[C@H](Cc2ccc(O)cc2)NC(=O)[C@@H](N)CSSC[C@@H](C(=O)N2CCC[C@H]2C(=O)N[C@@H](CCCCNC(=O)CON=C[C@H](F)[C@@H](O)[C@H](O)[C@H](O)CO)C(=O)NCC(N)=O)NC(=O)[C@H](CC(N)=O)NC(=O)[C@H](CCC(N)=O)NC1=O [OTK^8[Aoa-FDG]] | 13 ± 0.11 h | > 10 h | > 10 h | > 10 h | 5.25 ± 5.1 nM | ~ 2 fold | 115 ± 81 nM | 54 ± 31 nM | 25% |  |  |  |  |  |  |  |
| CC[C@H](C)[C@@H]1NC(=O)[C@H](Cc2ccc(O)cc2)NC(=O)CCSSC[C@@H](C(=O)N2CCC[C@H]2C(=O)N[C@@H](CCCCNC(=O)c2ccc(F)cc2)C(=O)NCC(N)=O)NC(=O)[C@H](CC(N)=O)NC(=O)[C@H](CCC(N)=O)NC1=O [dOTK^8[SFB]] ([Mpa]YIQNCPK(Benzoyl(4-F))G-NH2; disulfide 1-6) | > 48 h | > 10 h | > 10 h | > 10 h | 46.8 ± 1.5 nM |  | 334.3 ± 0.6 nM | 46 ± 3.6 nM | 25% | ~ 4 fold |  |  |  |  |  |  |
| CC[C@H](C)[C@@H]1NC(=O)[C@H](Cc2ccc(O)cc2)NC(=O)[C@@H](N)CSSC[C@@H](C(=O)N2CCC[C@H]2C(=O)N[C@@H](CCCCNC(=O)CON=Cc2ccc(F)cc2)C(=O)NCC(N)=O)NC(=O)[C@H](CC(N)=O)NC(=O)[C@H](CCC(N)=O)NC1=O [OTK^8[Aoa-FBA]] | 18 ± 0.04 h | > 10 h | > 10 h | > 10 h | 42.1 ± 1.4 nM |  | 331.6 ± 0.4 nM | 354 ± 5.7 nM |  | ~ 4 fold | significantly more hydrophobic |  |  |  |  |  |
| CC[C@H](C)[C@@H]1NC(=O)[C@H](Cc2ccc(O)cc2)NC(=O)CCSSC[C@@H](C(=O)N2CCC[C@H]2C(=O)N[C@@H](CCCCNCCS(=O)(=O)F)C(=O)NCC(N)=O)NC(=O)[C@H](CC(N)=O)NC(=O)[C@H](CCC(N)=O)NC1=O [dOTK^8[ESF]] |  |  |  |  |  |  |  |  |  |  |  | > 10 h | > 10 h | > 10 h |  |  |
| CC[C@H](C)[C@@H]1NC(=O)[C@H](Cc2ccc(O)cc2)NC(=O)CCSSC[C@@H](C(=O)N2CCC[C@H]2C(=O)N[C@@H](CCCCN(CCS(=O)(=O)F)CCS(=O)(=O)F)C(=O)NCC(N)=O)NC(=O)[C@H](CC(N)=O)NC(=O)[C@H](CCC(N)=O)NC1=O [dOTK^8[ESF2]] |  |  |  |  |  |  |  |  |  |  | significantly more hydrophobic | 3.6 h | < 1 h | < 1 h | < 0.5 h | < 0.5 h |

Source: publication PMC12589438 (Communications Chemistry, 2025)
